Laboratory results reported in patent publication US12162892B2, “CD16a binding agents and uses thereof” (KLEO PHARMACEUTICALS, INC., priority 2018, dated 2024).
“And” between values parts separate entries of the source, which are not always exact repeats. Identical values can stand only once.

Experiments:
[1] = biological target: T1, CD16a158V (Homo sapiens, UniProt P08637, F176V); assay: Biotinylated Ligand ELISA Assay; format: binding; details: Biotinylated CD16a protein at 10 nM
Method: (§1) Coat ELISA plates (Costar 3922) using Neutravidin (Thermo 31000) at 5 μg/ml (100 μl/well) for 1 hour at 37° C. Plates were washed 4 times with PBST (PBS, 0.05% Tween 20-200 μl, 1 minute/wash) then blocked using 200 μl 5% bovine serum albumin (BSA, Heat Shock, Fraction V-American Bio AB01088-00100) in PBST for 2 hours at 25° C. with moderate shaking. BSA was removed and plates were washed. Biotinylated ligands diluted in PBSTB (PBST+0.1% BSA) were then added (100 μl/well) and incubated for 1 hour at 25° C. with gentle shaking. Ligands were removed and plates were washed. Any remaining unoccupied neutravidin binding sites were blocked by adding 100 μM Biotin (Fisher BP232-1) (100 μl/well) and incubated for 1 hour at 25° C. with gentle shaking. Plates were then washed. […] Protein was removed and plates were washed. Streptavidin-HRP (Invitrogen 434323) diluted 1:5000 in PBSTB was added (100 μl/well) and incubated for 1 hour at 25° C. with gentle shaking. Wash plates. Substrate (Super Signal ELISA Pico Chemiluminescent Substrate-Thermo 37069) was added (100 μl/well) and plates were incubated for 5 minutes at 25° C. with gentle shaking. Luminescence was then measured on the Biotek Synergy H1 microplate reader.

[2] = system: primary monocytes; assay: ADCP assay using fresh primary monocytes; format: cell-based, human; details: beads loaded with test compound at 50 uM; 37C for 18 hrs
Method: (§2) Biotinylated fluorescent beads (Invitrogen, cat #P35372) were thoroughly mixed by vortexing for 1 min. Ten microliters of supplied bead suspension per treatment type were dispensed in Eppendorf tubes, and washed with 1 ml PBS […], then re-suspended in 500 uL of 1% BSA in PBS. Test compounds were added to bead suspensions to a final concentration of 50 uM, and biotinylated human IgG whole molecule (Rockland 009-0602) final concentration of 20 ug/mL.
(§3) Tubes were incubated at room temperature for 1 hr on a rocking platform.
(§4) Following incubation, beads were pelleted in a microcentrifuge at 12,000 g for 5 minutes at room temperature. Supernatants were carefully aspirated and beads were washed 5 times by resuspending in 1 ml of PBS 1% BSA, and centrifuging as described above. Finally, beads were resuspended in 500 ul of PBS 1% BSA and used in ADCP assay.
PBMC, freshly isolated from whole blood (Bioreclamation IVT0) using Ficoll-Paque density centrifugation were resuspended in serum-free, supplemented RPMI at 2×10^6 cells/mL.
Ten milliliters of the resulting cell suspension was seeded into 75-cm^2 tissue culture flask (Denville Scientific TC9341) and incubated 2-3 hr at 37° C. 5% CO2 to allow cell adhesion. Following incubation, media was decanted and surface of the flask was carefully washed twice, each time with 10 ml serum-free, supplemented RPMI to remove any residual non-adherent cells. To remove adherent cells, 10 mL of ice-cold 2.5 mM EDTA/PBS solution was added for 10 min on ice. Cells were transferred to a 15-ml conical tube and centrifuge 10 min at 300×g, room temperature, to remove the EDTA/PBS solution. Monocytes were then resuspended in RPMI 10% FCS at 5×10^5 cells/mL to be used in ADCP assay. Monocyte purity was assessed by staining cells with antibodies to human CD3 FITC (Biolegend 300306), CD19 PeCy7 (Biolegend 302216), CD14 BV421 (BD Biosciences, 565283), and CD16 (Biolegend 302046).
(§5) Monocytes or THP-1 cells (TIB-202 ATCC) were seeded into 96 well round bottom 96 well plates at the density of 10^5 cells per well in 200 ul, and 10 uL of fluorescent bead suspension prepared as described above was added to each well. Well contents were mixed by pipetting up and down using a multichannel pipet, and plates were incubated at 37C for 18 hrs. After incubation, well contents were transferred into flat bottom black 96 well plates (Costar #3358) and centrifuged for 2 minutes at 300 g to allow for better visualization of the cells. Images were taken using Zoe fluorescent cell imager (Biorad).

[3] = system: CD16a negative THP1 cells; assay: ADCP assay using THP-1 cells; format: cell-based; details: beads loaded with test compound at 50 uM; 37C for 18 hrs
Method: as §2, §3, §4, §5

[4] = biological target: T2, CD16a158F (Homo sapiens, UniProt P08637); assay: Biotin ELISA, interaction with various receptors (Example 55); format: binding; details: three replicate values per compound
Method: as §1
(§6) Using similar methods as Examples 47 or 53, interactions with a number of receptors were measured. In some embodiments, “stock” is antibody only, and “control” is an antibody that went through the same procedure except using DMSO only as opposed to a compound. When contacted with targeting moieties such as antibodies in the Examples, compounds, e.g., I-95, I-96, etc. can react through their reactive groups

[5] = biological target: T1, CD16a158V; assay: as above; format: binding; details: three replicate values per compound
Method: as §1, §6

[6] = biological target: T3, CD32a H167 (Homo sapiens, UniProt P12318); assay: as above; format: binding; details: three replicate values per compound
T3 sequence (P12318 36-218 limits assumed): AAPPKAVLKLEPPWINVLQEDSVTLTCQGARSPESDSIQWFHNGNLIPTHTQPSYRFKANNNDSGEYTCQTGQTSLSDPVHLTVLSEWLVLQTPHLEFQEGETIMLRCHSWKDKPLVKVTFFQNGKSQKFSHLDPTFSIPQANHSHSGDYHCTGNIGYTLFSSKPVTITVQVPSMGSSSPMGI
Method: as §1, §6

[7] = system: CD32a-R167; assay: as above; format: binding; details: three replicate values per compound
Method: as §1, §6

[8] = biological target: T4, CD32b (Homo sapiens, UniProt P31994); assay: as above; format: binding; details: three replicate values per compound
T4 sequence (P31994 43-310): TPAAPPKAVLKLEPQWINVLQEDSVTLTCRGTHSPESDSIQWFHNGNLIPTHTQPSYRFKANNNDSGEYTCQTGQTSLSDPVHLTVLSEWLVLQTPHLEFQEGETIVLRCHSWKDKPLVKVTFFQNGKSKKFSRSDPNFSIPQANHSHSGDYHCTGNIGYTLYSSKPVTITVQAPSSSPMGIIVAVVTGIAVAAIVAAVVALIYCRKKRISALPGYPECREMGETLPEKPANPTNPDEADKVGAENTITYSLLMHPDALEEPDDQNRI
Method: as §1, §6

[9] = biological target: CD3ed (Homo sapiens, UniProt P04234+P07766); assay: as above; format: binding; details: three replicate values per compound
Method: as §1, §6

[10] = biological target: CD64 (Homo sapiens, UniProt P12314); assay: as above; format: binding; details: three replicate values per compound
Method: as §1, §6

[11] = Biotin ELISA, No Protein (Example 55); format: binding; details: three replicate values per compound
Method: as §1, §6

[12] = biological target: T2, CD16a158F; assay: Biotinylated Ligand ELISA Assay; format: binding; set-up: purchased Acro Biosystems CDA-H82E8; details: Biotinylated CD16a protein at 10 nM
Method: as §1

[13] = biological target: T1, CD16a158V; assay: Microscale Thermophoresis; format: binding; details: read-out: MST-CD16a158V KD
Method: (§7) Target proteins (poly-histidine tagged, 600 nM) were fluorescently labeled combination with an equal volume of dye (200 nM, His-Tag labeling kit RED-tris-NTA NanoTemper: MO-L008) PBST. The mixture rotated in the dark for 45 min before being spun down at 12000 rpm for 15 min to remove uncomplexed material. The fluorescence of the removed supernatant was adjusted to for a test concentration of 40-80 nM (2× the final measured). Test ligands were prepared across a 12-point dilution series in a 96-well PCR plate at a volume of 20 uL at 2× the concentration desired for testing (0.2% BSA in PBST). The dilution series was then combined with an equal volume of the labeled target at 2× the concentration desired for testing. Capillaries were added to the wells of the combined target/ligand complex and measured by MST. Measurements were taken using a Nanotemper Monolith NT.115, and the data was analyzed using NanoTemper MO.Control software.

[14] = biological target: T2, CD16a158F; assay: Microscale Thermophoresis; format: binding; set-up: purchased Acro Biosystems CDA-H82E8; details: read-out: MST-CD16a158F KD
Method: as §7

T2 sequence (P08637 17-208 limits assumed): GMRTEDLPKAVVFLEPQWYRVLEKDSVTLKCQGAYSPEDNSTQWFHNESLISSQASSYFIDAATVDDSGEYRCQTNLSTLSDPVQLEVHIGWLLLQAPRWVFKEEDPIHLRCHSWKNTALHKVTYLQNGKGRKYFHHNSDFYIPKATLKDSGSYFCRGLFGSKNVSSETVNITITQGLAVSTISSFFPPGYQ
CD3ed, sequence (P07766 23-126 limits assumed): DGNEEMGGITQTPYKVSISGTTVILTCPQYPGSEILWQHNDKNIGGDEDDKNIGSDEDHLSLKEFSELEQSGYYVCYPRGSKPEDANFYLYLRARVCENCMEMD
CD3ed, sequence (P04234 22-105 limits assumed): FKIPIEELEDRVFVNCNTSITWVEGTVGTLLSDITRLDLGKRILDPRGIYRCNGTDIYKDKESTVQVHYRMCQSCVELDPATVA
T1 sequence (P08637 17-208 F176V): as the sequence (P08637 17-208 limits assumed) above, with F160V counted along it
CD64, sequence (P12314 16-374): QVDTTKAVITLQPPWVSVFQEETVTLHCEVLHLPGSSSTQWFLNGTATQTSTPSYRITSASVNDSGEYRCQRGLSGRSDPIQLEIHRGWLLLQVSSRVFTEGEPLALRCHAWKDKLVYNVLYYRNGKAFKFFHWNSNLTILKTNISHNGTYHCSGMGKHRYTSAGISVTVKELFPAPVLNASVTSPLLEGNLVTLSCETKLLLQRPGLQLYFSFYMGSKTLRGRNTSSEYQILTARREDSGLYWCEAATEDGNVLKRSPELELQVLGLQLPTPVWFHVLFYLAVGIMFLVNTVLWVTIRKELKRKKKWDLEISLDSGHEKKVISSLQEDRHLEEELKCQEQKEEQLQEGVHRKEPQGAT

Row | Biotin ELISA Results CD16a-158F [4] | Biotin ELISA Results CD16a-158V [5] | Biotin ELISA Results CD32a-H167 [6] | Biotin ELISA Results CD32a-R167 [7] | Biotin ELISA Results CD32b [8] | Biotin ELISA Results CD3ed [9] | Biotin ELISA Results CD64 [10] | Kd [13] | Kd [14] | Compound | Biotinylated Ligand ELISA-CD16a158V Binding (RLU) [1] | ACDP (primary monocytes)-normalized phagocytosis score [2] | ACDP (CD16a negative THP1 cells)-normalized phagocytosis score [3] | Biotin ELISA Results No Protein [11] | Biotinylated Ligand ELISA-CD16a158F Binding (RLU) [12]
1 | 2154 and −1155 and −213 | −378 and −180 and −282 | 1138 and 43 and 249 | 280 and −228 and −1215 | 98 and 1052 and 486 | 1016 and −29 and −4459 | 54153 and 79621 and 89966 | 1 to 100 nM |  | O=C(CCCC[C@@H]1SC[C@@H]2NC(=O)N[C@@H]21)NCCOCCOCCOCCOCCOCCOCCOCCOCCn1cc(-c2ccc(NC(=O)C3CC(=O)N(c4ccccc4)C3)cc2)nn1 (stereo partly drawn) [Compound I-36] | C (a relative luminescence value (RLU) of 1,000-10,000) | B (a normalized phagocytosis score of 1.5-2.0) | B (a normalized phagocytosis score of 1.5-2.0) | −764 and −989 and −154 | C (a relative luminescence value (RLU) of 1,000-10,000)
2 |  |  |  |  |  |  |  | 100 to 500 nM | 100 to 500 nM | COc1ccc(OC)c(N2CC(C(=O)Nc3ccc(-c4cn(CCCC(=O)O)nn4)cc3)CC2=O)c1 (stereo not drawn) [Compound I-29] |  |  |  |  | 
3 |  |  |  |  |  |  |  | 100 to 500 nM |  | COc1ccc(OC)c(N2CC(C(=O)Nc3ccc(-c4cn(CCOCCOCCOCCOCCOCCOCCOCCOCCNC(=O)CCCC[C@@H]5SC[C@@H]6NC(=O)N[C@@H]65)nn4)cc3)CC2=O)c1 (stereo partly drawn) [Compound I-39] | C (a relative luminescence value (RLU) of 1,000-10,000) | B (a normalized phagocytosis score of 1.5-2.0) | B (a normalized phagocytosis score of 1.5-2.0) |  | C (a relative luminescence value (RLU) of 1,000-10,000)

More lines, now with the values behind:

Row | Compound | Biotin ELISA Results CD16a-158F [4] | Biotin ELISA Results CD16a-158V [5] | Biotin ELISA Results CD32a-H167 [6] | Biotin ELISA Results CD32a-R167 [7] | Biotin ELISA Results CD32b [8] | Biotin ELISA Results CD3ed [9] | Biotin ELISA Results CD64 [10] | Kd [13] | Kd [14] | Biotinylated Ligand ELISA-CD16a158V Binding (RLU) [1] | ACDP (primary monocytes)-normalized phagocytosis score [2] | ACDP (CD16a negative THP1 cells)-normalized phagocytosis score [3] | Biotin ELISA Results No Protein [11] | Biotinylated Ligand ELISA-CD16a158F Binding (RLU) [12]
4 | O=C(CCCC[C@@H]1SC[C@@H]2NC(=O)N[C@@H]21)NCCOCCOCCOCCOCCOCCOCCOCCOCCn1cc(-c2ccc(NC(=O)N3CCC4(CC3)NC(=O)N(Cc3ccccc3)C4=O)cc2)nn1 [Compound I-17, N-{4-[1-(26-{5-[(3aS,4S,6aR)-2-oxo-hexahydro-1H-thieno[3,4-d]imidazol-4-yl]pentanamido}-3,6,9,12,15,18,21,24-octaoxahexacosan-1-yl)-1H-1,2,3-triazol-4-yl]phenyl}-3-benzyl-2,4-dioxo-1,3,8-triazaspiro[4.5]decane-8-carboxamide] | 122 and 5830 and 2636 | 443 and 2316 and 1591 | 1642 and 1978 and 2246 | 11182 and 5954 and 10675 | 2439 and 955 and 1191 | 1412 and 1083 and 1250 | 44623 and 46028 and 52372 |  |  | D (a relative luminescence value (RLU) of 1-1,000) | C (a normalized phagocytosis score of 1.0-1.5) | B (a normalized phagocytosis score of 1.5-2.0) | −236 and −272 and 237 | D (a relative luminescence value (RLU) of 1-1,000)
5 | O=C(CCCC[C@@H]1SC[C@@H]2NC(=O)N[C@@H]21)NCCOCCOCCOCCOCCOCCOCCOCCOCCNC(=O)c1cnc(N2CCC3(CC2)NC(=O)C(Nc2ccccc2)C3=O)nc1 (stereo partly drawn) [Compound I-21] | 6775 and 6468 and 5831 | 5747 and 5338 and 6303 | 15126 and 14461 and 15658 | 12004 and 10942 and 9796 | 14249 and 14080 and 11349 | 8285 and 6369 and 7518 | 98211 and 69008 and 131784 |  |  | A (a relative luminescence value (RLU) of >100,000) | C (a normalized phagocytosis score of 1.0-1.5) | D (a normalized phagocytosis score of 0.5-1.0) | 7902 and 6992 and 7029 | A (a relative luminescence value (RLU) of >100,000)
6 | O=C(CCCC[C@@H]1SC[C@@H]2NC(=O)N[C@@H]21)NCCOCCOCCOCCOCCOCCOCCOCCOCCC(=O)N1CCC(N2CC(=O)N(c3ccccc3)C2=O)CC1 [Compound I-30] |  |  |  |  |  |  |  |  | > 1000 nM |  |  |  |  | 
7 | O=C(CCCC[C@@H]1SC[C@@H]2NC(=O)N[C@@H]21)NCCOCCOCCOCCOCCOCCOCCOCCOCCn1cc(-c2ccc(C(=O)N3CCC4(CC3)NC(=O)N(Cc3ccccc3)C4=O)cc2)nn1 [Compound I-28] |  |  |  |  |  |  |  |  | 100 to 500 nM | B (a relative luminescence value (RLU) of 10,000-100,000) |  |  |  | B (a relative luminescence value (RLU) of 10,000-100,000)
